The source of these data is US10626081B2, “Farnesoid X receptor agonists and uses thereof” (Metacrine, Inc., priority 2015, dated 2020).

Where only a bound is given, the exact number is not on record here.

The target of one assay is T1, FXR (Homo sapiens, UniProt Q96RI1).
T1 construct: expressed in transfected cells; host or cells: CV-1 cells
T1 sequence (Q96RI1 1-486): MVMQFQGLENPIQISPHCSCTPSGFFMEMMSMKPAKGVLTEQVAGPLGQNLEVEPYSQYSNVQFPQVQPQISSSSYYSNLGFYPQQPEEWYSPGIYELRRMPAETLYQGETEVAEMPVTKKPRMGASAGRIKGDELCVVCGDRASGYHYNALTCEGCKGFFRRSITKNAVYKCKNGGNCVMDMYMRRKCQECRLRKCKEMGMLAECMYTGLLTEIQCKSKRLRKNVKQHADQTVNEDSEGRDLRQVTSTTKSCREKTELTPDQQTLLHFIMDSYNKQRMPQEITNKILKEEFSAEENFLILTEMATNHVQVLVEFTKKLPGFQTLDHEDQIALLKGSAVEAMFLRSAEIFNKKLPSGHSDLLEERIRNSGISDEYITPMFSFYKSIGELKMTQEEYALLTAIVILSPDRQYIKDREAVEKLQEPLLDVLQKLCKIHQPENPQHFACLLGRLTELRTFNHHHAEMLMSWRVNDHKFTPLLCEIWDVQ
T1 sequence (P19793 1-462 partner): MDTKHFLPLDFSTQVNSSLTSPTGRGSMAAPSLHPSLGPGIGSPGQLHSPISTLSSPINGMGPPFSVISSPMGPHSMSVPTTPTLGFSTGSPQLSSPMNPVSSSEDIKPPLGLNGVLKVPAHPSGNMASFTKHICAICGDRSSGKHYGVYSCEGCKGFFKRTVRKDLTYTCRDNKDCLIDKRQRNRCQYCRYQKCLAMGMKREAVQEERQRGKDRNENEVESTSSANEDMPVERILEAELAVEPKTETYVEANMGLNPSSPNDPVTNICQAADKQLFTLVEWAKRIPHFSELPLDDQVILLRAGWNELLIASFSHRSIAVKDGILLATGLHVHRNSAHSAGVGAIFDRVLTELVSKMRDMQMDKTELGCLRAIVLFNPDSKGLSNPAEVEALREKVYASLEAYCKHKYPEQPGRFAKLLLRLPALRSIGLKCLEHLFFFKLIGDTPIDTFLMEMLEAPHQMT
The assay is described as follows: In Vitro FXR Assay (PGL3): luciferase reporter in transfected CV-1 cells. It is filed as cell-based. The settings on record: CV-1 cells transfected with hFXR, hRXR, PGL3-ECRE*6-luc; 18 h incubation; luminescence. How it is done: Example B-1: In Vitro FXR Assay (PGL3)
CV-1 cells were seeded at a density of 2,000,000 cells in a T175 flask with DMEM+10% charcoal double-stripped FBS and incubated at 37° C. in a 5% CO2 for 18 h (O/N).
After 18 h of incubation, the medium in the T175 flask was changed with fresh DMEM+10% charcoal super-stripped serum.
To prepare the transfection reaction mixture, the transfection reagent (X-tremeGENE HP from Roche, Cat #06 366 236 001) was added in to a 1.5 mL microcentrifuge tube labelled “A” at a ratio of 1:3 (DNA in transfection reagent in μL). OptiMEM medium (Life Technologies, Cat #31985-062) was added accordingly to provide a total volume of 1 mL. The transfection reaction mixture was then briefly vortexed and incubated at room temperature for 5 minutes.
In a separate 1.5 mL microcentrifuge tube labelled “B”, 100 μL OptiMEM and plasmids XPD90Gal pCMXhFXRfl, pCMXhRXRfl+PGL3-ECRE*6-luc+CMX-YFP in the ratio 2 μg:2 μg:18 μg:3 μg were added. This microcentrifuge tube “B” was then briefly vortexed and incubated at room temperature for 5 minutes.
The total volume in tube labelled “A” was then transferred in to tube labelled “B.” The mixture was then briefly vortexed and the transfection:DNA complex was then incubated for about 15-20 minutes at room temperature.
Following incubation, the transfection reagent/DNA mixture complex was then added to cells in the T175 flask and the cells were incubated at […] (O/N) at 37° C. in 5% CO2.
In a 96 well plate, a half logarithmic serial dilution was prepared. OptiMEM was used as the diluent. Using any of one of the compounds described herein, a compound stock solution of 10 mM was prepared. An initial 1:100 dilution was made into the first well for a final concentration of 100 μM. The final concentrations in the 96-well plate was prepared by using a multichannel pipette to transfer 5 μL of the diluted compound to 384-well plate in quadruplicate.
Cells in T175 flask were trypsinized and cells were resuspended in 40 mL phenol red free DMEM+10% charcoal super-stripped FBS. Typically, one T175 flask was sufficient to seed two 384 well plates. CV-1 cells were seeded at 45 μL cell suspension/well using a multi-channel pipet or a 384 multidrop dispenser. The cells were then incubated for 18 hrs, overnight.
After removing the plates from the incubator, the medium was flicked out of plate and 384 well plate was turned upside down onto paper towel. The remaining medium was gently tapped out. 15 μL lysis buffer was then added to each well using a multichannel pipet or a 384 well multi-drop dispenser. After incubation for 10 minutes at room temperature on shaker, 30 μL Luciferase buffer was added to each well. Luminescence counts were taken immediately using the Perkin Elmer Envision.
The ability of the compounds disclosed herein to […] FXR activity was quantified and the respective EC50 value was determined. Fex=fexaramine.
A general note: In a reporter assay the amount or activity of a reporter protein is the signal.
As for `COC(=O)/C=C/c1cccc(N(Cc2ccc(N3CCN(C)CC3)cc2)C(=O)C2CCCCC2)c1` [compound 76, (E)-Methyl 3-(3-(N-(4-(4-methylpiperazin-1-yl)benzyl)cyclohexanecarboxamido)phenyl) acrylate], the “Cmpd/Fex (ratio of the EC50 for the test compound relative to the EC50 of the Fexaramine control)” value was “+ (‘+’ means Cmpd/Fex > 100)”.
Same read-out and setting: for `COC(=O)/C=C/c1cccc(N(Cc2ccc(N3CCNCC3)cc2)C(=O)C2CCCCC2)c1` [compound 79, (E)-Methyl 3-(3-(N-(4-(piperazin-1-yl)benzyl)cyclohexanecarboxamido)phenyl) acrylate] the value was “+ (‘+’ means Cmpd/Fex > 100)”.

In the next assay the target is T1, FXR. The assay is described as follows: In Vitro FXR Assay (TK): TK-ECRE-luc reporter in transfected CV-1 cells. The format is cell-based. Particulars: CV-1 cells transfected with hFXR, hRXR, 18 h incubation, luminescence. The essentials: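 CV-1 cells in charcoal-stripped FBS medium were transiently cotransfected with hFXR, hRXR, TK-ECRE-luc and pCMX-YFP plasmids. After 18 h, compounds serially diluted in DMSO were added for 18 h at 37 °C, 5% CO2, then cells were lysed and luminescence read.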
On to `CN(C)c1ccc(-c2ccc(CN(C(=O)C3CCCCC3)c3cccc(/C=C/C(=O)OCC(F)(F)F)c3)cc2)cc1` [86.6, (E)-2,2,2-Trifluoroethyl 3-(3-(N-((4′-(dimethylamino)-[1,1′-biphenyl]-4-yl)methyl)cyclohexanecarboxamido)phenyl) acrylate], for which the EC50 lay in the range of 1 to 10 µM.
On the same count and under the same terms, for `CN(C)c1ccc(-c2ccc(CN(C(=O)C3CCCCC3)c3cccc(/C=C/C(=O)OCc4ccccc4)c3)cc2)cc1` [86.7, (E)-Benzyl 3-(3-(N-((4′-(dimethylamino)-[1,1′-biphenyl]-4-yl)methyl)cyclohexanecarboxamido)phenyl) acrylate] the value was > 10 µM.
On the same count and under the same terms, with `COC(=O)/C=C/c1cc(OC)cc(N(Cc2ccc(-c3ccc(N(C)C)cc3)cc2)C(=O)C2CCCCC2)c1` [86.8, (E)-Methyl 3-(3-(N-((4′-(dimethylamino)-[1,1′-biphenyl]-4-yl)methyl)cyclohexanecarboxamido)-5-methoxyphenyl)acrylate] the figure was 1 to 10 µM; with `COC(=O)/C=C/c1cc(C#N)cc(N(Cc2ccc(-c3ccc(N(C)C)cc3)cc2)C(=O)C2CCCCC2)c1` [86.9, (E)-Methyl 3-(3-cyano-5-(N-((4′-(dimethylamino)-[1,1′-biphenyl]-4-yl)methyl)cyclohexanecarboxamido)phenyl) acrylate], 1 to 10 µM.
For the compound `COC(=O)/C=C/c1cc(Cl)cc(N(Cc2ccc(-c3ccc(N(C)C)cc3)cc2)C(=O)C2CCCCC2)c1` [86.10, (E)-Methyl 3-(3-chloro-5-(N-((4′-(dimethylamino)-[1,1′-biphenyl]-4-yl)methyl)cyclohexanecarboxamido)phenyl) acrylate], the EC50 was ≤ 1 µM.
As for `COC(=O)/C=C/c1cc(N(Cc2ccc(-c3ccc(N(C)C)cc3)cc2)C(=O)C2CCCCC2)cc(C(F)(F)F)c1` [86.11, (E)-Methyl 3-(3-(N-((4′-(dimethylamino)-[1,1′-biphenyl]-4-yl)methyl)cyclohexanecarboxamido)-5-(trifluoromethyl)phenyl)acrylate], the EC50 lay within 1 to 10 µM.
Take `COC(=O)/C=C/c1cccc(N(Cc2ccc(-c3ccc(N(C)C)cc3)cc2)C(=O)[C@H]2CC[C@H](NC(C)=O)CC2)c1` [98.1, trans-(E)-Methyl 3-(3-(4-acetamido-N-((4′-(dimethylamino)-[1,1′-biphenyl]-4-yl)methyl)cyclohexanecarboxamido)phenyl)acrylate]: the EC50 is ≤ 1 µM.
The same measure, in the same setting: for `COC(=O)/C=C/c1cccc(N(Cc2ccc(-c3ccc(N(C)C)cc3)cc2)C(=O)[C@H]2CC[C@H](NS(C)(=O)=O)CC2)c1` [98.2, trans-(E)-Methyl 3-(3-(N-((4′-(dimethylamino)-[1,1′-biphenyl]-4-yl)methyl)-4-(methylsulfonamido)cyclohexane-carboxamido)phenyl)acrylate] the value was ≤ 1 µM; for `COC(=O)/C=C/c1cccc(N(Cc2ccc(-c3ccc(N(C)C)cc3)cc2)C(=O)C2CCC(=O)CC2)c1` [compound 17, (E)-Methyl 3-(3-(N-((4′-(dimethylamino)-[1,1′-biphenyl]-4-yl)methyl)-4-oxocyclohexanecarboxamido)phenyl)acrylate], ≤ 1 µM.
The same measure, in the same setting: with `COC(=O)/C=C/c1cccc(N(Cc2ccc(-c3ccc(N(C)C)cc3)cc2)C(=O)[C@H]2CC[C@H](NC(=O)OC(C)(C)C)CC2)c1` [compound 96, (E)-Methyl 3-(3-(trans-4-((tert-butoxycarbonyl)amino)-N-((4′-(dimethylamino)-[1,1′-biphenyl]-4-yl)methyl)cyclohexanecarboxamido)phenyl) acrylate] the figure was ≤ 1 µM.
On the same count and under the same terms, with `COC(=O)/C=C/c1cccc(N(Cc2ccc(-c3ccc(N(C)C)cc3)cc2)C(=O)[C@H]2CC[C@H](N)CC2)c1` [compound 97, (E)-Methyl 3-(3-(trans-4-amino-N-((4′-(dimethylamino)-[1,1′-biphenyl]-4-yl)methyl)cyclohexanecarboxamido)phenyl) acrylate] the figure was > 10 µM; with `COC(=O)/C=C/c1cccc(N(Cc2ccc(-c3ccc(N(C)C)cc3)cc2)C(=O)[C@H]2CC[C@H](NC(=O)OC)CC2)c1` [compound 98, (E)-Methyl 3-(3-(trans-N-((4′-(dimethylamino)-[1,1′-biphenyl]-4-yl)methyl)-4-((methoxycarbonyl)amino)cyclo-hexanecarboxamido)phenyl)acrylate], ≤ 1 µM; with `CC(C)=CCc1cccc(N(Cc2ccc(-c3ccc(N(C)C)cc3)cc2)C(=O)C2CCCCC2)c1` [compound 99, N-((4′-(Dimethylamino)-[1,1′-biphenyl]-4-yl)methyl)-N-(3-(3-methylbut-2-en-1-yl)phenyl) cyclohexanecarboxamide], > 10 µM.
The compound `COC(=O)/C=C/c1cccc(N(Cc2ccc(NC(=O)c3ccccc3)cc2)C(=O)C2CCCCC2)c1` [compound 100, (E)-Methyl 3-(3-(N-(4-benzamidobenzyl)cyclohexanecarboxamido)phenyl)acrylate] gave an EC50 of 1 to 10 µM.
For `COC(=O)/C=C/c1cccc(N(Cc2ccc(N(C)C(=O)c3ccccc3)cc2)C(=O)C2CCCCC2)c1` [compound 101, (E)-Methyl 3-(3-(N-(4-(N-methylbenzamido)benzyl)cyclohexane-carboxamido)phenyl)acrylate], the EC50 was > 10 µM.
Same read-out and setting: for `COC(=O)/C=C/c1cccc(N(Cc2ccc(NCc3ccccc3)cc2)C(=O)C2CCCCC2)c1` [compound 102, (E)-Methyl 3-(3-(N-(4-(benzylamino)benzyl)cyclohexane-carboxamido)phenyl)acrylate] the value was 1 to 10 µM.
The same measure, in the same setting: with `COC(=O)/C=C/c1cccc(N(Cc2ccc(N(C)Cc3ccccc3)cc2)C(=O)C2CCCCC2)c1` [compound 103, (E)-Methyl 3-(3-(N-(4-(benzyl(methyl)amino)benzyl)cyclo-hexanecarboxamido)phenyl)acrylate] the figure was > 10 µM.

The EC50 is the concentration giving half of the maximal effect. Read a high EC50 as a less potent agent.
